US4912223A, “1,4-Dihydropyridines” (Nelson Research & Development Co., priority 1988, dated 1990)
Counter-ions that a name gives are not always drawn.

What was measured:
[1] = test system: Systolic arterial blood pressure; test: Hypotensive Activity (oral), indirect tail cuff method in spontaneous hypertensive rats (SHR); assay type: in vivo, spontaneous hypertensive rates (SHR); details: 10 mmol/Kg in polyethylene glycol
Protocol: Systolic arterial blood pressure was measured with the indirect tail cuff method in spontaneous hypertensive rates (SHR). The change in baseline pressure (170-210 mm Hg) was recorded at various time points following oral administration of 10 mmol/Kg of the test compound in polyethylene glycol.

[2] = target: T1, DHP Site of the Calcium Channel (Oryctolagus cuniculus, UniProt P07293); test: Binding Assay for Drugs Acting at the DHP Site of the Calcium Channel (3H-nitrendipine displacement); details: washed rabbit skeletal muscle membranes, 0.5×10^-9 M 3H-nitrendipine, 30 min, 25° C., pH 7.4
T1 construct: Washed rabbit skeletal muscle membranes (fraction 2-8X); from tissue; host or cells: rabbit skeletal muscle membranes (fraction 2-8X)
T1 sequence (P07293 1-1664 limits assumed): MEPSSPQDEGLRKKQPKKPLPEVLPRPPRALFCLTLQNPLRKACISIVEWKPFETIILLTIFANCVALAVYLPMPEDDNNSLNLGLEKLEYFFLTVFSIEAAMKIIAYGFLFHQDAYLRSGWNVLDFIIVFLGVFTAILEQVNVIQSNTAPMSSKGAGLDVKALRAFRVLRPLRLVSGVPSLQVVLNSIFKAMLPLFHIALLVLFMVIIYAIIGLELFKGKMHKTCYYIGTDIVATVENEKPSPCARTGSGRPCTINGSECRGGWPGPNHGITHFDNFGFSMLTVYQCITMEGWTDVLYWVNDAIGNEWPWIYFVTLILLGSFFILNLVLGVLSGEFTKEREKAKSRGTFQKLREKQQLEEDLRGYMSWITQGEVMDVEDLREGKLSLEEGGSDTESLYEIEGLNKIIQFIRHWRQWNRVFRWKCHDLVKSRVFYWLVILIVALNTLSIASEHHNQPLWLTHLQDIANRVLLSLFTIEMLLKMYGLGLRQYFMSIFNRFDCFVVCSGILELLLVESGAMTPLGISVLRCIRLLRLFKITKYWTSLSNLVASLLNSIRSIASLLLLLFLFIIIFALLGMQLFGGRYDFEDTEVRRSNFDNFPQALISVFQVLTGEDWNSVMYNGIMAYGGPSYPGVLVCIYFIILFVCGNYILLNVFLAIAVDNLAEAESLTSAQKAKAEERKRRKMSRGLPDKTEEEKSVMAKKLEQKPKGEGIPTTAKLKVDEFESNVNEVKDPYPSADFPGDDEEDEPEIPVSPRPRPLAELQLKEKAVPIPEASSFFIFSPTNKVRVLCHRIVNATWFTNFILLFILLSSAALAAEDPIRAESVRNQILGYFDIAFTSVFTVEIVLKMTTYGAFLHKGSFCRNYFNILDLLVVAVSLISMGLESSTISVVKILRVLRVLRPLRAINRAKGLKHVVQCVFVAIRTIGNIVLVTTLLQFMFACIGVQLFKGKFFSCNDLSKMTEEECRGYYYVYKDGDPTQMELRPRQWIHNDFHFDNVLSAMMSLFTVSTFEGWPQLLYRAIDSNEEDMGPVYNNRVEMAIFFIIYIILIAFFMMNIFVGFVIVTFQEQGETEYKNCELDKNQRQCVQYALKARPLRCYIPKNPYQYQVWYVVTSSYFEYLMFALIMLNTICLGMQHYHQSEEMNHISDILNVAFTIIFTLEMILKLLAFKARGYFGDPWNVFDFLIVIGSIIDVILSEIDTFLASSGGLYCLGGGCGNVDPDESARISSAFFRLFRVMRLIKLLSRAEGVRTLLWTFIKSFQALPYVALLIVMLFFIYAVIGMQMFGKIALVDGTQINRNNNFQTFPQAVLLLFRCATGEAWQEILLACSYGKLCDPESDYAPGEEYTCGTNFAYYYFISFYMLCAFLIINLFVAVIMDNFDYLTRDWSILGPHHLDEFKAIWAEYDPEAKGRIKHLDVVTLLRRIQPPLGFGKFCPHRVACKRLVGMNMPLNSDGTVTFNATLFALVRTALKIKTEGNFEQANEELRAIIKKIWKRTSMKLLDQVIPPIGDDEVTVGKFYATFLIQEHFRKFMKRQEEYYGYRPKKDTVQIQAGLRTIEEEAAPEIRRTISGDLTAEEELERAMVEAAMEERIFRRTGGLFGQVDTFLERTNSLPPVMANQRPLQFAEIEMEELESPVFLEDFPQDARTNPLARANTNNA
T1 sequence (P13806 27-960 partner limits assumed): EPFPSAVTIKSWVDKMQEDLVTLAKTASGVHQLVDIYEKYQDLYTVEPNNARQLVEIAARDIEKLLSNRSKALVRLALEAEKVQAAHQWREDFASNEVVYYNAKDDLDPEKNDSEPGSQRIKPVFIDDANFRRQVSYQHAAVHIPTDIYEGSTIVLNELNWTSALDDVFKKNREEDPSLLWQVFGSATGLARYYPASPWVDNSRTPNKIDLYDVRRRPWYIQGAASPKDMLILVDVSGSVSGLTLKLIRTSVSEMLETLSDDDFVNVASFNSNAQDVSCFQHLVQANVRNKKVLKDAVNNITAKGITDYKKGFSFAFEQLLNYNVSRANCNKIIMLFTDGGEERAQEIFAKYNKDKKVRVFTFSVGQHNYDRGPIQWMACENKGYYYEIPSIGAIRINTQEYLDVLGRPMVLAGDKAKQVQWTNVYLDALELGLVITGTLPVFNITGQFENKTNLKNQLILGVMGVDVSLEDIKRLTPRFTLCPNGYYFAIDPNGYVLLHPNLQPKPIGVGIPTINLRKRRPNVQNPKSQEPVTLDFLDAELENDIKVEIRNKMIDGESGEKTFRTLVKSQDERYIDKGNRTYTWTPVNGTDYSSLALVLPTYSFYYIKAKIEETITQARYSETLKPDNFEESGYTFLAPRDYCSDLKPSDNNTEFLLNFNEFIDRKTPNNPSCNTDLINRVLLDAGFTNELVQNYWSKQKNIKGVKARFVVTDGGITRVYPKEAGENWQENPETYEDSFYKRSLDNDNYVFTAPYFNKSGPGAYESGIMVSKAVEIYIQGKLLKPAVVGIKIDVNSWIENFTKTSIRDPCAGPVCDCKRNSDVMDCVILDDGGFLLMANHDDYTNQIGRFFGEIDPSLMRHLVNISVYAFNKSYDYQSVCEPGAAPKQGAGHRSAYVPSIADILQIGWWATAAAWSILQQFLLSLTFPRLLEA
T1 sequence (P13806 961-1106 partner limits assumed): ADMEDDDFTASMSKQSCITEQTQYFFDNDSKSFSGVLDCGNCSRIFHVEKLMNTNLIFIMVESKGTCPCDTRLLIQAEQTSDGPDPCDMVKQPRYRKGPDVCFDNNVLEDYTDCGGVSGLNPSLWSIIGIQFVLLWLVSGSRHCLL
T1 sequence (P19517 whole entry partner): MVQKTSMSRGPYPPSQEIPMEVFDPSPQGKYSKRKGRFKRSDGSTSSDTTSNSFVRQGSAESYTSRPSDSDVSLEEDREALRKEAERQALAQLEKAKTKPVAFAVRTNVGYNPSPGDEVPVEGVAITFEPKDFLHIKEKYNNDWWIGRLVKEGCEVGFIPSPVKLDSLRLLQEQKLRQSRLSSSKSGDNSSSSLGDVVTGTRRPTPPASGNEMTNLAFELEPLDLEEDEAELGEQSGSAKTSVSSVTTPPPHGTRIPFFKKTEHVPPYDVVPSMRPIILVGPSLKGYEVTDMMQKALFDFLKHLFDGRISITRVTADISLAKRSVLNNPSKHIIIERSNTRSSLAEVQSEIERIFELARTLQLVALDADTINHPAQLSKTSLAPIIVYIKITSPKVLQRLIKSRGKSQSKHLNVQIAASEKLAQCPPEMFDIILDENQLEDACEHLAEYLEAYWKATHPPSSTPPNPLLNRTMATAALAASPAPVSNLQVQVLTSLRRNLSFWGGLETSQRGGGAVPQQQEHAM
T1 sequence (P19518 whole entry partner): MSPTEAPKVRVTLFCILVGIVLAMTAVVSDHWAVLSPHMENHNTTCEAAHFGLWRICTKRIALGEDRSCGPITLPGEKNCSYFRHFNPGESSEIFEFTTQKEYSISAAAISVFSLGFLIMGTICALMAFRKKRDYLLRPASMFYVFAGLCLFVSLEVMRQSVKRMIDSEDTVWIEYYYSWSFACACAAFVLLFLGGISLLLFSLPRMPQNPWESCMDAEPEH
Protocol: The incubation tubes were rapidly chilled in ice and the contents filtered through Whatman GF/B filters on a Millipore manifold, and the filters were placed in scintillation counting vials with 8 ml of Cytoscint cocktail, disrupted mechanically by shaking for 30 minutes and counted.
Drugs which interact at the DHP site will reduce this specific binding in a dose-dependent manner. The assays for the compounds of this invention were made with logarithmically spaced concentrations, the data were plotted on a probit-concentration plot, and the IC50 read off. The KI of the drug was calculated by standard techniques.

[3] = Water solubility of salt (dissolution in aqueous NaOH, freeze-dried); assay type: physicochemical
Protocol: A suspension of 50 mg (0.099 mmol) of the product of Example 2C in 30 ml of water and 1.0 ml (0.099 ) of 0.1N NaOH was stirred at ambient temperature for 15 hours.
All material was dissolved at this time. The mixture was freeze-dried to give 50 mg (quantitative yield) of a foamy water soluble solid: m.p. 215°-220° C.
A suspension of 50 mg (0.076 mmol) of the product of Example 6 in 30 ml of water and 1.52 ml (0.152 mmol) of 0.1N NaOH was stirred at ambient temperature for 15 hours. The material was totally dissolved at this time. The mixture was freeze dried to give 50 mg (quantitative yield) of a foamy water-soluble solid: m.p. 225°-232° C.

Row | Compound | Mean Change (Decrease) in Systolic Blood Pressure, 120 min after drug administration [1] | Mean Change (Decrease) in Systolic Blood Pressure, 240 min after drug administration [1] | Mean Change (Decrease) in Systolic Blood Pressure, 360 min after drug administration [1] | Ki [2] | Mean Change (Decrease) in Systolic Blood Pressure, 12 min after drug administration [1] | Mean Change (Decrease) in Systolic Blood Pressure, 30 min after drug administration [1] | Mean Change (Decrease) in Systolic Blood Pressure, 60 min after drug administration [1] | solubility in water (in words) [3]
1 | COC(=O)C1=C(C)NC(C)=C(C(=O)OCC2COC(C)(C)O2)C1c1cccc([N+](=O)[O-])c1 (stereo not drawn) [Example 1B, 2,6-Dimethyl-3-(2,2-dimethyl-1,3-dioxolan-4-carbomethoxy)-4-(3-nitrophenyl)-5-carbomethoxy-1,4 dihydropyridine] | 36 mm Hg | 34 mm Hg | 19 mm Hg | 4.5 nM |  |  |  | 
2 | COC(=O)C1=C(C)NC(C)=C(C(=O)OCC2OC(=O)C3OC(C)(C)OC23)C1c1cccc([N+](=O)[O-])c1 (stereo not drawn) [Example 2C, 2,6-Dimethyl-3-(carboriboxy-gamma-lactone dimethylketal)-4-(3-nitrophenyl)-5-carbomethoxy-1,4-dihydropyridine] | 29 mm Hg | 22 mm Hg | 20 mm Hg | 30 nM | 40 mm Hg | 37 mm Hg | 31 mm Hg | 
3 | COC(=O)C1=C(C)NC(C)=C(C(=O)OCC(O)CO)C1c1cccc([N+](=O)[O-])c1 (stereo not drawn) [Example 4, 2,6-Dimethyl-5-carbomethoxy-4-(3-nitrophenyl)-3-(2,3 dihydroxycarbopropoxy)-1,4-dihydropyridine] | 12 mm Hg | 6 mm Hg | 4 mm Hg | 140 nM | 13 mm Hg | 16 mm Hg | 18 mm Hg | 
4 | COC(=O)C1=C(C)NC(C)=C(C(=O)OCC2COC3(CCCC3)O2)C1c1cccc([N+](=O)[O-])c1 (stereo not drawn) [Example 4B, 2,6-Dimethyl-5-carbomethoxy-4-(3-nitrophenyl)-3-(1,4-dioxaspiro[4,4]non-2-yl-carbomethoxy)-1,4-dihydropyridine] | 17 mm Hg | 23 mm Hg | 27 mm Hg | 2.3 nM |  |  |  | 
5 | CC1=C(C(=O)OCC2COC(C)(C)O2)C(c2cccc([N+](=O)[O-])c2)C(C(=O)OCC2COC(C)(C)O2)=C(C)N1 (stereo not drawn) [Example 5, 2,6-Dimethyl-3,5-di-(2,2-dimethyl-1,3-dioxolan-4-carbomethoxy)-4-(3-nitrophenyl)-1,4-dihydropyridine] | 17 mm Hg | 19 mm Hg | 19 mm Hg | 29 nM | 17 mm Hg | 19 mm Hg | 13 mm Hg | 
6 | CC1=C(C(=O)OCC2OC(=O)C3OC(C)(C)OC23)C(c2cccc([N+](=O)[O-])c2)C(C(=O)OCC2OC(=O)C3OC(C)(C)OC23)=C(C)N1 (stereo not drawn) [Example 6, 2,6-Dimethyl-3,5-di(carboriboxy-gamma-lactone dimethylketal)-4-(3-nitrophenyl)-1,4-dihydropyridine] |  |  |  | 93 nM |  |  |  | 
7 | COC(=O)C1=C(C)NC(C)=C(C(=O)OCC(O)C2OC(C)(C)OC2C(=O)O)C1c1cccc([N+](=O)[O-])c1 (stereo not drawn) [Example 11, 2,6-Dimethyl-3-(carboribonic acid-gamma-lactone dimethylketal)(3-nitrophenyl)-5-(carbomethoxy)-1,4-dihydropyridine, sodium salt] |  |  |  |  |  |  |  | water soluble
8 | CC1=C(C(=O)OCC(O)C2OC(C)(C)OC2C(=O)O)C(c2cccc([N+](=O)[O-])c2)C(C(=O)OCC(O)C2OC(C)(C)OC2C(=O)O)=C(C)N1 (stereo not drawn) [Example 13, 2,6-Dimethyl-3,5-di-(carboribonic acid-gamma-lactone dimethylketal)-4-(3-nitrophenyl-1,4-dihydropyridine, disodium salt] |  |  |  |  |  |  |  | water-soluble
9 | COC(=O)C1=C(C)NC(C)=C(C(=O)OC)C1c1ccccc1[N+](=O)[O-] [Nifedipine, nifedipine, reference compound] | 11 mm Hg |  |  |  | 6 mm Hg | 36 mm Hg | 20 mm Hg | 
